In a melting point compilation (Tetko et al.; mined from patent text by program, amines drawn as free bases though some values may be those of a salt):

melting point [°C]	SMILES
80 to 100	CCSc1cnn(-c2cc(-c3ccnc(Nc4cccc(Cl)c4)n3)ccn2)c(=O)c1Cl
80.5	CCOCc1ccc(CN(O)C(N)=O)o1
92 to 94	Cc1c(NCCNCC(O)COc2ccccc2)c(=O)n(C)c(=O)n1C (configuration not stated)
172	Cn1cc(C#N)c(Nc2ccccc2[N+](=O)[O-])n1
146 to 148	O=C(CCCCN1CCOCC1)c1ccc2c(c1)C(=O)c1cc(C(=O)CCCCN3CCOCC3)ccc1-2
117 to 119	CCOC(=O)c1cn2c(C)csc2n1
179	COc1cc(CCN2CCN(C)CC2)cc(OC)c1-c1ccc(C[C@H](NC(=O)c2c(Cl)cccc2Cl)C(=O)O)cc1
219 to 221	Nc1ccc2nc3c(=O)[nH][nH]c(=O)c3c(O)c2c1
179 to 180	O=S(=O)(NCC(O)(Cn1cncn1)c1ccc(Cl)cc1Cl)c1ccc2ccccc2c1 (configuration not stated)
115 to 116	COC(=O)Cc1ccccc1Oc1cccc(O)c1
128 to 130	COCCn1c(C)nc2cnc3ccccc3c21
74	Cc1ccc(S(=O)(=O)OCCCc2c[nH]c3ccc(F)cc23)cc1
268 to 269	CCN(CC)C(=O)C(=NO)c1c[nH]c2c1ccc1c3ccccc3[nH]c12
127 to 128	Cc1ccccc1N1CCN(CCc2ccc(N3CCCNC3=O)cc2)CC1
181 to 182	COc1cc(COc2nn(-c3ccccc3)cc2/C=C/c2csc(C)n2)ccc1OCc1nc(-c2ccc(CC(=O)O)cc2)oc1C
77 to 78	Cc1ccccc1C(=NO)C(=O)OC(C)C
202	CCCNC(=O)c1ccccc1C(c1ccc(O)cc1)c1ccc(O)cc1
101 to 102	O=C(NCCCS(=O)c1ccncc1)c1cccs1 (configuration not stated)
153 to 154	COC(=O)c1ccc(CCC(CS(=O)(=O)c2ccc(Oc3ccc(OC(F)(F)F)cc3)cc2)N(O)C=O)cc1 (configuration not stated)
151 to 152	Cc1cc(NCCNCC(O)COc2ccccc2)c2ccccc2n1 (configuration not stated)
50 to 53	CC(O)=C(C#N)C(=O)Cc1ccc(Cl)cc1
104 to 106	CCCCCCCCCCCCc1ccccc1C(Sc1nc(C)c(C(=O)O)n1C)C(=O)O (configuration not stated)
240 to 241	CC(C)CN1C(=O)C(NC(=O)c2cc3ccccc3[nH]2)N=C(N2CCCCCC2)c2ccccc21 (single isomer, unassigned; (-))

melting point [°C]	SMILES
179	O=C(O)COc1ccc(S(=O)(=O)c2cccs2)c(Cl)c1Cl
99 to 100	CC(=O)c1cccc(S(=O)(=O)C[N+](=O)[O-])c1
148 to 150	O=C(NCc1ccccc1Cl)c1ccccc1CN1C(=O)C2(COc3cc4c(cc32)CCO4)c2ccccc21 (configuration not stated)
137 to 139	CCOC(=O)c1c(N2CCNCC2)c2ccc(C)nc2n(CC)c1=O
97	CC(=O)n1cc(Cl)c(-c2cccc(Cl)c2Cl)c1
91 to 93	COc1cc(N)c(Cl)cc1C(=O)NCC1(OC)CCN(CCCCCC(=O)c2ccccc2)CC1
162 to 163	CC1(C)C=C(N2CCCCC2=O)c2cc(C#N)ccc2O1
75.6 to 76.1	CCCCc1ccc(C#Cc2ccc(Br)cc2)cc1
150 to 151	Oc1cc(-c2ccccc2)on1
132 to 134	CC[C@H](C)[C@H](Nc1nc(C(=O)c2ccccc2)ns1)C(=O)N1CCC[C@H]1C(=O)O
158 to 159	Cc1oc(-c2ccccc2)nc1COc1cccc(COc2cncc(CC(=O)O)c2)c1
195 to 197	COCCNc1nc(N)nc(-c2cc(Cl)ccc2Cl)n1
183	O=[N+]([O-])c1ccc2sc(NCCO)nc2c1
217	CN(C)c1nc2sc3c(NCc4ccco4)ncnc3c2c2c1CC(C)(C)C2
115	CCOc1c(C=NO)c(=O)n(C)c(=O)n1C
172 to 173	COCN1C(C)=C(C(=O)O)C(c2ccccc2C(F)(F)F)C(C(=O)O)=C1C
193 to 194	COc1cccc([C@H]2O[C@H](CC#N)C(=O)N(CC(C)(C)C)c3ccc(Cl)cc32)c1OC
143 to 146	CC(C)=C1CCCP1(=O)c1ccccc1 (configuration not stated)
158 to 160	O=C(O)COc1cccc2c1CCC(Cc1coc(C(c3ccccc3)c3ccccc3)n1)C2 (configuration not stated)
212 to 214	CC1=NN(c2ccccc2O)C(=O)C1
41 to 42	CCCCCCCCCCC#Cc1cccc([C@H]2O[C@@H]2CO)c1
192 to 198	CN1CCN(c2ccc(/C=C/c3cc(/C=C/c4ccc5cc[nH]c5c4)[nH]n3)cc2)CC1
232 to 241	O=c1c2ccccc2sc2ccc(O)cc12

melting point [°C]	SMILES
37 to 38.5	CCC(C)Nc1c([N+](=O)[O-])cc(C)c(C)c1[N+](=O)[O-] (configuration not stated)
55 to 56	N#Cc1ccc(F)cc1-c1ccco1
108 to 110	Cn1c(-c2ccc(-n3ccnc3)cc2)cnc1[C@H](Cc1ccccn1)N(C=O)c1cc2cccnc2o1
89 to 90	CCC(CC)Cn1nc(-c2ccc(O)cc2O)c2cccc(C(F)(F)F)c21
176 to 178	CC1(C=NO)OCCc2c1[nH]c1ccccc21 (configuration not stated)
50 to 55	CC#CCOc1ccc(S(=O)(=O)N(C)C(C(=O)NO)c2ccc(OCCCNC(=O)OCCCC)cc2)cc1 (configuration not stated)
80 to 81	CCOC(=O)CCc1cn(Cc2ccc(OCc3coc(-c4ccccc4)n3)cc2)nc1OCC
170 to 173	O=c1[nH]cc(Cl)cc1Br
87 to 89	CC1C(Cl)(Cl)C1(C)C(=O)C(N)=O (configuration not stated)
262	CS(=O)(=O)c1cccc(NC(=O)c2cnn3c(C(F)F)cc(-c4ccc(Cl)c(Cl)c4)nc23)c1
193	CN(C)CCNS(=O)(=O)c1cccc([N+](=O)[O-])c1C(=O)O
173 to 174	CC(C(=O)O)N1CCNC(C(=O)O)C1 (configuration not stated)
75 to 78	CCCCCCCCN(C)C(=O)C(C)(C)n1cc(C)c(-c2ccccc2)n1
176 to 178	COc1ccc(-n2c(=O)cc(C(F)(F)F)n(N)c2=O)cc1
102 to 104	Cc1ccc(C)c(S(=O)(=O)Nc2onc(C)c2Br)c1
189 to 190	COC(=O)c1cccc2c1c(S(=O)(=O)NC(C)(C)C)nn2C
135 to 138	CC(C)(C)NCCOp1oc2c(C(C)(C)C)cc(C(C)(C)C)cc2c2cc(C(C)(C)C)cc(C(C)(C)C)c2o1
98	CCCCC[C@H]1CC[C@H](c2ncc([C@H]3CC[C@H](CCC)CC3)cn2)CC1
148 to 150	Cc1cc(C)nc(-c2ncc([N+](=O)[O-])n2C)n1
159 to 162	CCCCC(CC)C(=O)Nc1ccc2ccn(Cc3ccc(C(=O)OC(=O)N(c4ccccc4)c4ccccc4)cc3OC)c2c1 (configuration not stated)
112	OC1(c2cc(F)cc(OCc3ccccc3)c2)CCOCC1
226	O=C(O)c1cc2cc(OC(F)F)ccc2nc1C(=O)O
140 to 142	O=C(Cc1ccccc1C(F)(F)F)c1c(O)c2cccnc2n(-c2ccccc2)c1=O

melting point [°C]	SMILES
161	Cc1nc(C(F)(F)F)ccc1C(=O)Nc1ccccc1
199 to 200	CC#COc1ccc2c(=O)cc(-c3ccccc3)oc2c1
60.5 to 61	CCCCOC(=O)Cc1ccc(CNS(=O)(=O)c2ccccc2)cc1
115 to 120	O=C1Nc2ccccc2C1C1CCN(CC(O)C2COc3ccccc3O2)CC1 (configuration not stated)
166	CCOC(=O)C1=C(C)NC(CN2C(=O)c3ccccc3C2=O)=C(C(=O)OCC)C1c1ccccc1Cl (configuration not stated)
160 to 161	CCOC(=O)c1nn(-c2ccc(Cl)cc2)c(=O)c(C#N)c1C
81 to 83	COC(=O)COc1ccc(C(=O)C(C)N2CCN(c3ccncc3)CC2)cc1 (racemic)
180 to 182	COC(=O)N1CCN(Cc2nc(-c3ccc4c(c3)Nc3ccccc3S4)cs2)CC1
196	O=C1CN(C(=O)C(Cl)Cl)N(Cc2ccc(Cl)c(Cl)c2)C(=O)N1
208	O=C(O)CNc1nccc(-n2cc(C3c4ccccc4C=Cc4ccccc43)c(=S)[nH]c2=O)n1
163 to 176	COc1cc(C2=CCCCC2)c(Cl)cc1C(=O)N1Cc2ccc(C(=O)N(C)C[C@@H]3OC(=O)O[C@H]3[C@H](O)[C@H]3COC(=O)O3)n2Cc2ccccc21
82 to 83	Cn1c(C(F)(F)F)cc(=O)n(-c2c(F)cc(Cl)c3c2OC(C)(C)C3O)c1=O (configuration not stated)
172 to 173	COc1ccc2c(c1OC)C(=O)O[C@@H]2[C@H]1c2c(c(I)c3c(c2OC)OCO3)CCN1C
225 to 227	Cc1cc(-n2ccc(OCc3ccc(C(F)(F)F)cc3)cc2=O)sc1C(=O)NCc1ccccc1
176	CCOC(=O)c1cc2ccc(C#N)cc2[nH]1
231 to 234	CONC(=O)c1cc(C)c(C(c2cc(F)ccc2F)S(=O)(=O)c2ccc(F)cc2)cn1 (configuration not stated)
185 to 189	Fc1cc(Cc2ccnc3c2Cc2ccccc2O3)ccn1
> 250	Nc1nc2ccc(S(=O)(=O)n3c(CCCC(=O)O)cc4nc(Cl)ccc43)cc2s1
240 to 241	CC(=O)Oc1ccc(-c2cnc(NS(=O)(=O)Cc3ccccc3)c(Cc3ccccc3)n2)cc1
30 to 32	CC(C)(C)c1ccc(OCCCCCCN2CCN(c3nccs3)CC2)cc1
91 to 92	O=C1CC(c2ccc(Cl)cc2Cl)Oc2ccccc21 (configuration not stated)
111 to 112	CC(C)(CCC(C)(C)NCc1ccccc1O)NCc1ccccc1O

SMILES	melting point [°C]
COC(=O)c1ccc(-c2ccc(-c3ccc4c(c3)C(C)(C)CCC4(C)C)[nH]2)cc1	176 to 179
BrCCNC(c1ccccc1)(c1ccccc1)c1ccccc1	108 to 109
C[C@@H]1N=C(c2ccccc2)c2cc(I)ccc2N(C)C1=O	115
Cc1cccc(C2=CCN(CCCCCC(=O)N3Cc4ccccc4C3)CC2)c1C#N	71
CC1N=C(c2ccccc2)c2ccccc2NC1=O (configuration not stated)	160 to 162
COc1nc2nc(C(OC(C)=O)C3(Br)C(=O)N4C(C(=O)OCc5ccc([N+](=O)[O-])cc5)=CSC43)cn2c2c1CCC2 (configuration not stated)	119
